From ChEMBL document CHEMBL5390258, “Recent Progress and Prospects of Small Molecules for NLRP3 Inflammasome Inhibition” (J Med Chem, 2023)

What was measured:
[1] = molecular target: T1, NACHT, LRR and PYD domains-containing protein 3 (Homo sapiens, UniProt Q96P20); experiment: Inhibition of NLRP3 in human PBMC cells assessed as reduction in IL-1beta production preincubated for 30 mins followed by LPS addition measured after 6 hrs; type: cell-based
[2] = molecular target: T1, NACHT, LRR and PYD domains-containing protein 3; experiment: Inhibition of NLRP3 in LPS induced human THP-1 cells assessed as reduction in IL-1beta production preincubated for 3 hrs followed by nigericin addition measured after 1 hrs by resazurin staining based assay; type: cell-based
THP-1 [3] = experiment: Induction of pyroptosis in human THP-1 cells by AlphaLisa assay; type: functional, cell-based
[4] = molecular target: T1, NACHT, LRR and PYD domains-containing protein 3; experiment: Inhibition of NLRP3 in human THP-1 cells assessed as reduction in IL-1beta production measured after 3 hrs by AlphaLISA assay; type: cell-based
[5] = molecular target: T1, NACHT, LRR and PYD domains-containing protein 3; experiment: Inhibition of NLRP3 in human THP-1 cells assessed as reduction in caspase 1 level; type: cell-based
[6] = molecular target: T2, NACHT, LRR and PYD domains-containing protein 3 (Mus musculus, UniProt Q8R4B8); experiment: Inhibition of NLRP3 in mouse J774A.1 cells assessed as reduction of IL-1beta production; type: cell-based, J774.A1
[7] = molecular target: T1, NACHT, LRR and PYD domains-containing protein 3; experiment: Inhibition of NLRP3 in human PBMC cells assessed as reduction in Il-1beta production preincubated for 0.5 hrs followed by LPS treatment for […] and further addition of ATP measured after 45 mins; type: cell-based
[8] = molecular target: T1, NACHT, LRR and PYD domains-containing protein 3; experiment: Inhibition of NLRP3 in human PBMC cells assessed as reduction in TNFalpha level preincubated for 0.5 hrs followed by LPS treatment for […] and further addition of ATP measured after 45 mins; type: cell-based
[9] = Inhibition of NLRP3 in PBMC cells (unknown origin) assessed as reduction in IL-1beta production measured after 2 hrs by ELISA assay; type: cell-based
[10] = molecular target: T1, NACHT, LRR and PYD domains-containing protein 3; experiment: Inhibition of NLRP3 in human THP-1 cells assessed as reduction in IL-1beta production measured after 1 hrs by ELISA assay; type: cell-based
[11] = molecular target: T2, NACHT, LRR and PYD domains-containing protein 3; experiment: Inhibition of NLRP3 in LPS induced mouse BV-2 cells assessed as reduction in IL-1beta production pretreated for 30 mins followed by nigericin addition measured after 2 hrs by ELISA assay; type: cell-based
THP-1 [12] = experiment: Antiinflammatory activity against PMA-differentiated human THP-1 cells assessed as reduction of IL-1beta production measured after 2 hrs; type: functional, cell-based; conditions: THP-1, 2 h
[13] = molecular target: T1, NACHT, LRR and PYD domains-containing protein 3; experiment: Inhibition of NLR3 in human Whole blood cell assessed as reduction in IL-1beta production preincubated for 0.5 hrs followed by LPS treatement for […] and further addition of ATP measured after 45 mins by ELISA assay; type: tissue-based
[14] = molecular target: T1, NACHT, LRR and PYD domains-containing protein 3; experiment: Inhibition of NLRP3 in human THP-1 cells assessed as reduction in IL-1beta production pre incubated for 3 hrs followed by nigericin addition measured after 1 hrs by resazurin staining based assay; type: cell-based
[15] = molecular target: T2, NACHT, LRR and PYD domains-containing protein 3; experiment: Inhibition of NLRP3 in mouse BMDM cells assessed as reduction in IL-1beta production preincubated for 30 mins followed by ATP addition measured after 45 mins by ELISA assay; type: cell-based
[16] = molecular target: T1, NACHT, LRR and PYD domains-containing protein 3; experiment: Inhibition of NLRP3 in human THP-1 cells assessed as reduction in IL-1beta production measured after 3 hrs; type: cell-based
[17] = molecular target: T1, NACHT, LRR and PYD domains-containing protein 3; experiment: Inhibition of NLRP3 in human PBMC cells assessed as reduction in TNF alpha level preincubated for 30 mins followed by LPS addition measured after 6 hrs; type: cell-based
[18] = molecular target: T1, NACHT, LRR and PYD domains-containing protein 3; experiment: Inhibition of NLRP3 in human THP-1 cells assessed as reduction in IL-1beta production measured after 3 hrs by resazurin staining based assay; type: cell-based
[19] = molecular target: T2, NACHT, LRR and PYD domains-containing protein 3; experiment: Inhibition of NLRP3 in mouse BMDM cells assessed as reduction in IL-1beta production; type: cell-based
[20] = molecular target: T1, NACHT, LRR and PYD domains-containing protein 3; experiment: Inhibition of NLRP3 in human THP-1 cells assessed as reduction in IL-1beta production; type: cell-based
[21] = molecular target: T1, NACHT, LRR and PYD domains-containing protein 3; experiment: Inhibition of NLRP3 (unknown origin) assessed as reduction of IL-1beta production
[22] = Lipophilicity, logP of the compound; type: physicochemical; conditions: octanol/water
[23] = molecular target: T1, NACHT, LRR and PYD domains-containing protein 3; experiment: Inhibition of NLRP3 in human Whole blood cell assessed as reduction in IL-1beta production incubated for overnight in presence of ATP by ELISA; type: tissue-based
[24] = molecular target: T1, NACHT, LRR and PYD domains-containing protein 3; experiment: Inhibition of NLRP3 in human THP-1 cells assessed as reduction in IL-1beta production by AlphaLISA assay; type: cell-based

T2 sequence (Q8R4B8 whole entry, the tested form may be a part): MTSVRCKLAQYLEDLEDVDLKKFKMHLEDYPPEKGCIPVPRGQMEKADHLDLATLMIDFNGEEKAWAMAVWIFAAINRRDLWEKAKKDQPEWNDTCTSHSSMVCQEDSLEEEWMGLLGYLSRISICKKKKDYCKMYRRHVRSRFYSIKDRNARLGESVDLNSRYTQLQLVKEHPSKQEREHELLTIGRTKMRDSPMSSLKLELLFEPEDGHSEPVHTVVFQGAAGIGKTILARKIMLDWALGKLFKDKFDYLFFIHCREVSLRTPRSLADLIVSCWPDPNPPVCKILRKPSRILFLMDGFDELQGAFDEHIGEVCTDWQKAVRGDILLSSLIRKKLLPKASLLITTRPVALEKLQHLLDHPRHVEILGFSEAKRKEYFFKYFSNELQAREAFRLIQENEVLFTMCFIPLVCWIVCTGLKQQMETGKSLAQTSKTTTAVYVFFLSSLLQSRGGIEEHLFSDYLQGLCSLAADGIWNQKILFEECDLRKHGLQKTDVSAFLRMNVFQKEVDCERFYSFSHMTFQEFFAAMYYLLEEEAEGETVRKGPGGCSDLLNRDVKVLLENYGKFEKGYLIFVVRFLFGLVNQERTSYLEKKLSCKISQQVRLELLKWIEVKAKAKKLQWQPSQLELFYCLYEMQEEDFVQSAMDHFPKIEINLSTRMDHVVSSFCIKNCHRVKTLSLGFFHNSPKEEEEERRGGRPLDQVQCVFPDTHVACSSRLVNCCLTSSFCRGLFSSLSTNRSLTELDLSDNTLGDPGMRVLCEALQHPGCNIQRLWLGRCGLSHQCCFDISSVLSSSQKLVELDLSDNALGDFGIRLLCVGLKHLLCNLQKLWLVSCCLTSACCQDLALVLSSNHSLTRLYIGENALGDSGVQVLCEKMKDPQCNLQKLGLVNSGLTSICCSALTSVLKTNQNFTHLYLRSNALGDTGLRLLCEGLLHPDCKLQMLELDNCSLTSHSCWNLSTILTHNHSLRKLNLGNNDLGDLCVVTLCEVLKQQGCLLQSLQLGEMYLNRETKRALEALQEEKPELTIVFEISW
T1 sequence (Q96P20 whole entry, the tested form may be a part): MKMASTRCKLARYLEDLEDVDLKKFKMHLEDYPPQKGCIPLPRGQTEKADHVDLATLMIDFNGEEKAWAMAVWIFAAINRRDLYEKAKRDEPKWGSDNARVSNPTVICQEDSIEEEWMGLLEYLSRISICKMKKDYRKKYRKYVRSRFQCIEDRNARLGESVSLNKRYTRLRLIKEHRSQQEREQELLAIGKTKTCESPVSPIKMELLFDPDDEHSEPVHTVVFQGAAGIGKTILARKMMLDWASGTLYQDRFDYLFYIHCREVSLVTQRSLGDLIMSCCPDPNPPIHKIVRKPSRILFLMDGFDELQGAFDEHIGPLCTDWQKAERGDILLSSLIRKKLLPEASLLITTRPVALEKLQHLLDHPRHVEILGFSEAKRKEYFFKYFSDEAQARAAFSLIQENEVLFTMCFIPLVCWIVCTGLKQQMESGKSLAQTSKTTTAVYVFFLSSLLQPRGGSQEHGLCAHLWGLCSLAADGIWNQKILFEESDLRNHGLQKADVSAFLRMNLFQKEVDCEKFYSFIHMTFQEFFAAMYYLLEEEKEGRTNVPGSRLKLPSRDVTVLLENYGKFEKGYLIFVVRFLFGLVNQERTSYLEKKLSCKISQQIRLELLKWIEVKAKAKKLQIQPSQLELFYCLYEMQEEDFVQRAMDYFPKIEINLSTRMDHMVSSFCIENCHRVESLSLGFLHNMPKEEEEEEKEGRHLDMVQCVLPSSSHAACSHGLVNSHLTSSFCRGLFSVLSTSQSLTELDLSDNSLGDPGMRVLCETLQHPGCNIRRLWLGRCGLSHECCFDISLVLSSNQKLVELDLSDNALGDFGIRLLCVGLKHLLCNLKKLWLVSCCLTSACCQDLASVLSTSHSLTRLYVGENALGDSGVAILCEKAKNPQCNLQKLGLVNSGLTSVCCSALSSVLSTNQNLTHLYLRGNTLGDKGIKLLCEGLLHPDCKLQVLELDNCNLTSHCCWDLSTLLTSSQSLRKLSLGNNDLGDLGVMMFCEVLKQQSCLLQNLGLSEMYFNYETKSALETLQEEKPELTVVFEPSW

Work on `CC(C)c1nn(CC(=O)Nc2ccc3nncn3n2)c(=O)cc1N1CC2CC2C1` (stereo not given) yielded an EC50 [1] of 90 nM.
`Cn1ncc2ccc(S(=O)(=O)NC(=O)Nc3c4c(cc5c3CCC5)CCC4)cc21` showed an IC50 [2] of less than 1000 nM.
Work on `Cc1cc(Cl)cc(O)c1-c1ccc2oc(N[C@H]3CCCN4CCC[C@H]34)nc2n1` yielded an IC50 (THP-1 [3]) of 0.6 nM.
For `CC(C)c1cc(F)cc2c1CC(=O)NS(=O)(=O)c1ccn(n1)C(C)(C)COc1cc-2ccn1`, the IC50 [4] was no more than 100 nM.
Work on `C=CCN1C(=O)/C(=C2/C(=O)Nc3ccccc32)SC1=S` yielded an IC50 [5] of 500 nM.
Work on `COC(=O)C12CC(NC(=O)Cn3nc(C(C)C)c(OCC(C)C)cc3=O)(C1)C2` yielded an EC50 [1] of 10 nM.
With `Cc1ccc(S(=O)(=O)/C=C/C#N)cc1` the IC50 [6] was 1540 nM.
With `CC(C)c1nn(CC(=O)Nc2ccncn2)c(=O)c2cccn12` the IC50 [7] was greater than 10000 nM and the IC50 [8] was greater than 10000 nM.
Molecule `Cn1cc(N(C[C@@H]2CCCO2)CS(=O)(=O)NC(=O)Nc2c3c(cc4c2CC4)CCC3)cn1` has an IC50 [9] of less than 100 nM.
For `CC(C)c1nn(CC(=O)Nc2ncncc2F)c(=O)c2cc(C(F)(F)F)ccc12`, the IC50 [10] was greater than 50000 nM.
`COC(=O)c1cccc(C(=O)NC2(C(=O)Nc3c4c(cc5c3CCC5)CCC4)CC2)c1` gave an IC50 [11] of 2050 nM.
For `O=C(Nc1c2c(cc3c1CC3)CCC2)NS(=O)(=O)c1cnn2c1OCCC2`, the IC50 (THP-1 [12]) was 200 nM.
For `CC(C)c1nn(C2(C(=O)Nc3ncccn3)CC2)c(=O)cc1-c1cc(F)cc(F)c1`, the IC50 [10] was 1140 nM.
With `O=C(/C=C/S(=O)(=O)c1ccccc1Cl)NCCc1ccccc1` the IC50 [6] was 910 nM.
Molecule `CC(C)c1nn(C(C)C(=O)Nc2ncc(F)cn2)c(=O)c2ccc(Br)cc12` (stereo not given) has an IC50 [10] of 3660 nM.
In the case of `O=C(Nc1c2c(cc3c1CCC3)CCC2)NS(=O)(=O)c1cc2c(o1)C1CCN(CC1)C2`, the IC50 [13] is reported as less than 1000 nM.
`COc1cc(C)c(S(=O)(=O)NC(=O)Nc2c3c(cc4c2CCC4)CCC3)cn1` showed an IC50 [14] of less than 1000 nM.
`CC(C)(O)c1coc(S(=O)(=O)NC(=O)Nc2c3c(cc4c2CCC4)CCC3)c1` showed an IC50 [11] of 3930 nM.
For `CC(C)c1cc(F)cc(C(C)C)c1NC(=O)NS(=O)(=O)c1cc2c(o1)CCCC2(C)O` (stereo not given), the IC50 [15] was less than 100 nM.
Molecule `CCc1oc(C(C)C)cc1NC(=O)NS(=O)(=O)C(c1cnn(C)c1)C1CCCN(C)C1` (stereo not given) has an IC50 [16] of less than 100 nM.
Work on `CC(C)c1nn(CC(=O)N[C@H]2C[C@](C)(O)C2)c(=O)c2ccc(Br)cc12` yielded an IC50 [1] of less than 25 nM and an IC50 [17] greater than 10000 nM.
Molecule `O=C(Nc1c2c(cc3c1CCO3)CCC2)NS(=O)(=O)c1ccn(C2CC2)n1` has an IC50 [18] of no more than 250 nM.
`CC(C)c1nc2c(C(C)C)nn(CC(=O)Nc3ccc4nncn4c3)c(=O)c2s1` gave an IC50 [17] of 11500 nM.
For `O=C(CBr)C1CCC1`, the IC50 [19] was roughly 5000 nM.
Work on `CCc1c(-c2cccc(F)c2)c(C(C)C)nn(CC(=O)Nc2ncncc2F)c1=O` yielded an IC50 [10] of 35300 nM.
With `Cc1cc2c(c(NC(=O)NS(=O)(=O)c3cc(C(C)(C)O)co3)c1-c1ccnc(OC3CCN(C)CC3)c1)CCC2` the IC50 [20] was no more than 250 nM.
In the case of `CS(=O)(=O)NC(=O)Nc1c(-c2ccnc(OC3CCN(Cc4ccccc4)CC3)c2)ccc2c1CCC2`, the IC50 [16] is reported as no more than 250 nM.
In the case of `COc1ccc(Cl)cc1C(=O)NCCc1ccc(S(=O)(=O)NO)cc1`, the IC50 [21] is reported as 8450 nM and the logP [22] is reported as 0.19.
For `O=C(Nc1c(C2CC2)ccc2c1CCC2)NS(=O)(=O)c1cc2c(o1)C1CCN(CC1)C2`, the IC50 [23] was less than 1000 nM.
`CN(C)Cc1cc(S(=O)(=O)NC(=O)Nc2c3c(cc4c2CCC4)CCC3)nn1C1CC1` showed an IC50 [14] of no more than 40 nM.
`Cc1nc(C(C)C)c(NC(=O)NS(=O)(=O)c2cc(C(C)(C)O)co2)n1-c1ccncc1` gave an IC50 [20] of no more than 250 nM.
Molecule `O=C1Nc2c(ccc3c2CCC3)-c2ccnc(c2)OCCn2cc(F)c(n2)S(=O)(=O)N1` has an IC50 [24] of less than 100 nM.
